Assay results reported in patent publication US5495046A, “Alkoxyphenylalkylamine derivatives” (Taisho Pharmaceutical Co., Ltd., priority 1991, dated 1996).
Structures can show the parent of a compound that is named as a salt. Where two headings read alike, the source gives them in different places.

Experiments:
[1] = tested on: sigma receptor; conditions: cited from earlier work
[2] = tested on: (+) SKF 10047-induced abnormal behaviors; test: Antagonism against (+) SKF 10047-induced abnormal behaviors; format: in vivo, ICR male mice; conditions: Mus musculus
Method: Examination on Antagonism Against (+) SKF 10047-induced Abnormal Behaviors
Preparations were formulated by dissolving 10 mg of each test drug in 1 ml of dimethylsulfoxide, diluting with physiological saline to a concentration of […], and further diluting the obtained solution to 0.01 and 0.001 mg/kg (administration dose: 0.1 ml per 10 g body weight of mouse).
The invention compound A, the comparative drug AA and Rimcazole were each orally administered in doses of 0.03, 0.1, 0.3, 1.0, 3.0 and 10.0 mg/kg. Preparations were formulated by suspending in a 5% solution of acacia.
(+) SKF10047 [(+)-N-allylnormetazocine hydrochloride; manufactured by Sigma] was intraperitoneally administered in a dose of 30 mg/kg. The preparation was formulated by dissolving in physiological saline.
As test animals, ICR male mice (Nippon Charles River) aged 4 to 5 weeks were used. Each group had 10 animals.
Each animal was introduced into a transparent acrylic resin cage (24 cm in length×17.5 cm in width×12 cm in height) and allowed to fully adapt to the environment. 35 minutes after the administration of a preparation of a test drug, (+) SKF10047 was administered. […]] were evaluated for 40 minutes at intervals of 5 minutes and the ED25 (mg/kg) was determined.

[3] = target: D2 receptor; conditions: value obtained from spiperone binding; European Journal of Pharmacology, 155, p. 345 (1988); cited from earlier work
[4] = target: D2 receptor (Rattus norvegicus, UniProt P61169); test: Receptor binding experiment: (-)[3H] sulpiride binding; set-up: species or system rat (male Wistar)
D2 receptor (Rattus norvegicus, UniProt P61169), sequence (P61169 whole entry): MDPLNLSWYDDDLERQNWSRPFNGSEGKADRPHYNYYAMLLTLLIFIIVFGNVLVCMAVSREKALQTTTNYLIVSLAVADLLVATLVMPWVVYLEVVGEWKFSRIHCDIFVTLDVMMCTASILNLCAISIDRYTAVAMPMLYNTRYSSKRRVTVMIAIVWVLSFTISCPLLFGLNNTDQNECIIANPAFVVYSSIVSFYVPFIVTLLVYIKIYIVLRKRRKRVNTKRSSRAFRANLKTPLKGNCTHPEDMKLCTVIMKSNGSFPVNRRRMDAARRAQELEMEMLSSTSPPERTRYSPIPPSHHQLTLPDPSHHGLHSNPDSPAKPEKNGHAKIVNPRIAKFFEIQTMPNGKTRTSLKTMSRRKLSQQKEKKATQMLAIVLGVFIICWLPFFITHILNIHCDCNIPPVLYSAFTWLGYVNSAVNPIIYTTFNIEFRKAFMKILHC
Method: (§1) Receptor Binding Experiment
(§2) As test animals, male Wistar rats were used.
(§3) As a [^3 H]-labeled ligand, (+)[^3 H]3-PPP [3-(3-hydroxyphenyl)-N-n-propylpiperidine] was used for sigma receptor, while (-)[^3 H] sulpiride was used for D2 receptor.
(§4) Binding reactions with the use of these [^3 H]-labeled ligands were performed respectively in accordance with the following methods (1) and (2) described in Molecular Pharmacology, 32, p. 772 (1987) and Journal of Pharmacy and Pharmacology, 32, p. 820 (1987).
(2) (-) [^3 H] sulpiride binding: A membrane preparation obtained from the corpus striatum of rat, (-) [^3 H] sulpiride and a test drug were reacted in a 50 mM Tris hydrochloride buffer (pH 7.7) at 37° C. for 10 minutes.
(§5) After the completion of each reaction, the reaction mixture was filtered under sucking onto a glass filter (GF/B) and the radioactivity of the filter paper was measured with a liquid scintillation spectrometer.
The data obtained by reacting in the presence of 10 μM (+) 3-PPP and 10 μM (-) thiapride were regarded respectively as the nonspecific binding of (+) [^3 H] 3-PPP and (-) [^3 H] sulpiride. Then the difference between the total binding and the nonspecific binding was referred to as the specific binding. The [^3 H]-labeled ligand at a definite concentration and the test drug at various concentrations were reacted under the conditions as specified in the above (1) or (2) to thereby give an inhibition curve.

[5] = target: sigma receptor (Rattus norvegicus, UniProt Q9R0C9); test: biochemical; format: binding, rat (male Wistar)
sigma receptor (Rattus norvegicus, UniProt Q9R0C9), sequence (Q9R0C9 whole entry): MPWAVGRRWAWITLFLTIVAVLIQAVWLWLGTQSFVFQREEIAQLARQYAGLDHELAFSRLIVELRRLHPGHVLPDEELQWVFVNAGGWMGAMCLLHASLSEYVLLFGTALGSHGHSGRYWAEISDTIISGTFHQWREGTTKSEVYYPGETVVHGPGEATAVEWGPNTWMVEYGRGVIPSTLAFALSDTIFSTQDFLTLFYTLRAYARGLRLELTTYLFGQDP
Method: as §1, §2, §3, §4
(1) (+) [^3 H] 3-PPP binding: A membrane preparation obtained from the whole brain of rat, (+) [^3 H] 3-PPP and a test drug were reacted in a 50 mM Tris hydrochloride buffer (pH 8.0) at 21° C. for 90 minutes.
as §5
The data obtained by reacting in the presence of 10 μM (+) 3-PPP and 10 μM (-) thiapride were regarded respectively as the nonspecific binding of (+) [^3 H] 3-PPP and (-) [^3 H] sulpiride. Then the difference between the total binding and the nonspecific binding was referred to as the specific binding.

[6] = oral, 35 minutes before (+) SKF10047 30 mg/kg i.p., stereotypy scores for 40 minutes at intervals of 5 minutes, read-out: ED25
[7] = read-out: 50% inhibitory concentration (IC50), Sigma, (+)[3H]3-PPP, rat whole brain membrane, pH 8.0, 21° C., 90 minutes
[8] = (+)[3H]3-PPP, rat whole brain membrane, pH 8.0, 21° C., 90 minutes
[9] = read-out: 50% inhibitory concentration (IC50), D2, (-)[3H] sulpiride, rat corpus striatum membrane, pH 7.7, 37° C., 10 minutes
[10] = (-)[3H] sulpiride, rat corpus striatum membrane, pH 7.7, 37° C., 10 minutes

Structure (SMILES): C[C@@H]1CN(CCCn2c3ccccc3c3ccccc32)C[C@H](C)N1 [Rimcazole]
- affinity and specificity for sigma receptor (in words) ([1]; background art statement): restricted
- IC50 ([1]; data of European Journal of Pharmacology, 155, p. 345 (1988)): 1640 nM
- ED25 [2, 6]: 37 mg/kg
- IC50 [3]: 86000 nM

Structure (SMILES): CCCN(CCC)CCc1ccc(OCCc2ccccc2)c(OC)c1 [R, N,N-Di-n-propyl-2-[3-methoxy-4-(2-phenylethoxy)phenyl]ethylamine oxalate]
- IC50 [4]: > 10000 nM
- IC50 [5]: 11.5 nM

Structure (SMILES): CCCN(CCC)CCc1cccc(OC)c1OCCc1ccccc1.O=C(O)C(=O)O [T, N,N-Di-n-propyl-2-[3-methoxy-2-(2-phenylethoxy)phenyl]ethylamine oxalate]
- IC50 [4]: > 10000 nM
- IC50 [5, 7]: 2.71 nM
- ED25 ([2]; po): 0.0017 mg/kg

Structure (SMILES): CCCN(CCC)CCCc1cccc(OC)c1OCCc1ccccc1 [U, N,N-Di-n-propyl-3-[3-methoxy-2-(2-phenylethoxy)phenyl]propylamine oxalate]
- IC50 [5, 8]: 12.5 nM

Structure (SMILES): COc1cccc(CCN2CCCC2)c1OCCc1ccccc1 [W, N-2-[3-Methoxy-2-(2-phenylethoxy)phenyl]ethylpyrrolidine oxalate]
- IC50 [4]: 5350 nM

Structure (SMILES): CCCN(CCC)CCc1cccc(F)c1OCCc1ccccc1 [H, N,N-Di-n-propyl-2-[3-fluoro-2-(2-phenylethoxy)phenyl]ethylamine oxalate]
- IC50 [4]: 3520 nM
- IC50 [5]: 21.6 nM

Structure (SMILES): CCCN(CCC)CCc1ccc(OCCc2ccccc2)cc1OC [Z, N,N-Di-n-propyl-2-[2-methoxy-4-(2-phenylethoxy)phenyl]ethylamine oxalate]
- IC50 [4]: 9180 nM
- IC50 [5, 7]: 6.83 nM

Structure (SMILES): CCCN(CCC)CCc1ccc(OC)c(OCCc2cccs2)c1 [Q, N,N-Di-n-propyl-2-[4-methoxy-3-[2-(2-thienyl)ethoxy]phenyl]ethylamine hydrochloride]
- IC50 [4]: > 10000 nM
- IC50 [5, 7]: 9.35 nM

Structure (SMILES): CCCN(CCC)CCc1ccc(O)c(OCCc2ccccc2)c1 [M, N,N-Di-n-propyl-2-[4-hydroxy-3-(2-phenylethoxy)phenyl]ethylamine hydrochloride]
- IC50 [4]: 2500 nM
- IC50 [5, 7]: 3.09 nM

Structure (SMILES): CCCN(CCC)CCCc1ccc(OC)c(OCCc2ccccc2)c1.O=C(O)C(=O)O [J, N,N-Di-n-propyl-3-[4-methoxy-3-(2-phenylethoxy)phenyl]propylamine oxalate]
- IC50 [4, 9]: 950 nM
- IC50 [5, 8]: 0.984 nM
- ED25 [2, 6]: 0.00263 mg/kg

Structure (SMILES): CCCN(CCC)CCc1cc(OC)ccc1OCCc1ccccc1 [X, N,N-Di-n-propyl-2-[5-methoxy-2-(2-phenylethoxy)phenyl]ethylamine hydrochloride]
- IC50 [4, 9]: 791 nM
- IC50 [5, 7]: 7.06 nM

Structure (SMILES): CCCN(CCC)CCc1ccc(OC)c(OCCc2ccc(OC)cc2)c1 [P, N,N-Di-n-propyl-2-[4-methoxy-3-[2-(4-methoxyphenyl)ethoxy]phenyl]ethylamine oxalate]
- IC50 [4]: 4990 nM
- IC50 [5]: 1.03 nM

Structure (SMILES): CCCN(CCC)CCc1ccc(OC)cc1OCCc1ccccc1 [Y, N,N-Di-n-propyl-2-[4-methoxy-2-(2-phenylethoxy)phenyl]ethylamine oxalate]
- IC50 [4]: 2350 nM
- IC50 [5, 7]: 6.6 nM

Structure (SMILES): CCCN(CCC)CCc1cc(Br)ccc1OCCc1ccccc1 [E, N,N-Di-n-propyl-2-[5-bromo-2-(2-phenylethoxy)phenyl]ethylamine oxalate]
- IC50 [4, 9]: 169 nM
- IC50 [5, 7]: 11.1 nM

Structure (SMILES): CCCN(CCC)CCc1ccc(OC)c(OCCc2cccc(Cl)c2)c1 [O, N,N-Di-n-propyl-2-[4-methoxy-3-[2-(3-chlorophenyl)ethoxy]phenyl]ethylamineoxalate]
- IC50 [4, 10]: 6600 nM
- IC50 [5, 7]: 1.49 nM

Structure (SMILES): CCCN(CCC)CCc1ccc(Cl)cc1OCCc1ccccc1 [D, N,N-Di-n-propyl-2-[4-chloro-2-(2-phenylethoxy)phenyl]ethylamine hydrochloride]
- IC50 [4]: 1450 nM
- IC50 [5, 7]: 17.9 nM

Structure (SMILES): CCCN(CCCO)CCc1ccc(OC)c(OCCc2ccccc2)c1 [S, N-n-propyl-N-3-hydroxypropyl-2-[4-methoxy-3-(2-phenylethoxy)phenyl]ethylamine oxalate]
- IC50 [4, 10]: > 10000 nM
- IC50 [5, 8]: 18.5 nM

Structure (SMILES): CCCN(CCC)CCc1ccc(OC)c(OCCCc2ccccc2)c1 [K, N,N-Di-n-propyl-2-[4-methoxy-3-(3-phenylpropoxy)phenyl]ethylamine oxalate]
- IC50 [5, 7]: 4.7 nM

Structure (SMILES): CCCN(CCC)CCc1ccc(OC)c(OCCc2ccc(F)cc2)c1 [N, N,N-Di-n-propyl-2-[4-methoxy-3-[2-(4-fluorophenyl)ethoxy]phenyl]ethylaminehydrochloride]
- IC50 [4, 10]: > 10000 nM
- IC50 [5]: 1.03 nM

Structure (SMILES): CCCN(CCC)CCc1cc(F)ccc1OCCc1ccccc1 [G, N,N-Di-n-propyl-2-[5-fluoro-2-(2-phenylethoxy)phenyl]ethylamine hydrochloride]
- IC50 [4]: 1910 nM
- IC50 [5]: 13.3 nM

Structure (SMILES): COc1ccc(CCN(C)C)cc1OCc1ccccc1.Cl [AA, N,N-dimethyl-2-(4-methoxy-3-benzyloxyphenyl)ethylamine hydrochloride, reference compound]
- IC50 [4]: 40800 nM
- IC50 [5]: 94.4 nM
- ED25 ([2]; po): 23.6 mg/kg

Structure (SMILES): COc1ccc(CCN2CCN(c3ccccc3)CC2)cc1OCCc1ccccc1 [L, N-2-[4-Methoxy-3-(2-phenylethoxy)phenyl]ethyl-N'-phenylpiperazine oxalate]
- IC50 [4, 9]: 183 nM
- IC50 [5, 7]: 33 nM

Structure (SMILES): CCCN(CCC)CCCc1cc(Br)ccc1OCCc1ccccc1 [F, N,N-Di-n-propyl-3-[5-bromo-2-(2-phenylethoxy)phenyl]propylamine oxalate]
- IC50 [4, 9]: 438 nM
- IC50 [5, 7]: 10.9 nM

Structure (SMILES): CCCN(CCC)CCCCc1cc(Cl)ccc1OCCc1ccccc1 [C, N,N-Di-n-propyl-4-[5-chloro-2-(2-phenylethoxy)phenyl]butylamine oxalate]
- IC50 [5, 8]: 26.4 nM

Structure (SMILES): CCCN(CCC)CCCc1cc(Cl)ccc1OCCc1ccccc1 [B, N,N-Di-n-propyl-3-[5-chloro-2-(2-phenylethoxy)phenyl]propylamine oxalate]
- IC50 [4, 10]: > 1000 nM
- IC50 [5, 8]: 28.9 nM

Structure (SMILES): CCCN(CCC)CCc1ccc(OC)c(OCCc2ccccc2)c1.O=C(O)C(=O)O [I, N,N-Di-n-propyl-2-[4-methoxy-3-(2-phenylethoxy)phenyl]ethylamine oxalate]
- IC50 [4]: > 1000 nM
- ED25 ([2]; po): 0.0008 mg/kg

Structure (SMILES): CCCN(CCC)CCc1cc(Cl)ccc1OCCc1ccccc1.O=C(O)C(=O)O [A, N,N-Di-n-propyl-2-[5-chloro-2-(2-phenylethoxy)phenyl]ethylamine oxalate]
- IC50 [4, 9]: 112 nM
- IC50 [5, 7]: 7.21 nM
- ED25 ([2]; po): 0.235 mg/kg

Structure (SMILES): CCCN(CCC)CCc1cccc(OC)c1OCCCc1ccccc1 [V, N,N-Di-n-propyl-2-[3-methoxy-2-(3-phenylpropoxy)phenyl]ethylamine oxalate]
- IC50 [5]: 1.65 nM

Structure (SMILES): CCCN1CCCC(c2cccc(O)c2)C1 (single isomer, unassigned) [Compound 3-PPP, 3-(3-hydroxyphenyl)-N-n-propylpiperidine, reference compound]
- IC50 [5, 8]: 24.3 nM
